We go through eight compounds from doi:10.1101/2021.09.30.462449v1 (biorxiv, 2021).

For this test, the target named is PL^pro (Severe acute respiratory syndrome coronavirus 2, UniProt P0DTD1). In words: FRET peptide cleavage assay. It is filed as biochemical.
With `COc1ccc2nc3cc(Cl)ccc3c(O)c2c1` [compound 6, 6-chloro-2-methoxyacridin-9-ol], the IC50 – broadly, the concentration that gives 50% inhibition – is over 20 µM. To `N#Cc1c(N2CCOCC2)ncc2cc3ccccc3nc12` [compound 9, 3-morpholin-4-ylbenzo[b]-1,6-naphthyridine-4-carbonitrile] belongs over 20 µM. `N#Cc1c(N2CCOCC2)ncc2c(=O)c3ccccc3[nH]c12` [compound 10, 3-morpholin-4-yl-10-oxo-5,10-dihydrobenzo[b]-1,6-naphthyridine-4-carbonitrile] showed an IC50 of over 20 µM. On to `COc1ccc2nc3cc(Cl)ccc3c(Nc3ccc(O)cc3)c2c1` [compound 2, 4-[(6-chloro-2-methoxyacridin-9-yl)amino]phenol], for which the IC50 was over 20 µM. Consider `COc1ccc2nc3cc(Cl)ccc3c(Nc3cc(CN(C)C)c(O)c(CN(C)C)c3)c2c1` [compound 3, 4-[(6-chloro-2-methoxyacridin-9-yl)amino]-2,6-bis[(dimethylamino)methyl]phenol], for which inhibition was half-maximal at 3.28 ± 0.4 µM (IC50).

As for `COc1ccc2nc3cc(Cl)ccc3c(N3CCOCC3)c2c1` [compound 7, 6-chloro-2-methoxy-9-morpholin-4-ylacridine], the IC50 is over 20 µM. Next, `COc1ccc2nc3cc(Cl)ccc3c(Nc3ccc(O)c(CN4CCCC4)c3)c2c1` [compound 4, 4-[(6-chloro-2-methoxyacridin-9-yl)amino]-2-(pyrrolidin-1-ylmethyl)phenol]: 2.56 ± 0.28 µM; `COc1ccc2nc3cc(Cl)ccc3c(Nc3cc(CN4CCCC4)c(O)c(CN4CCCC4)c3)c2c1` [compound 5, 4-[(6-chloro-2-methoxyacridin-9-yl)amino]-2,6-bis(pyrrolidin-1-ylmethyl)phenol]: 2.44 ± 0.53 µM.
